Compound | melting point
O=C(CC(c1ccccc1)c1ccccc1)N1CCN(CC(O)c2cc3ccccc3o2)CC1 (centres unmarked) [Compound 3, 1-(2-(benzofuran-2-yl)-2-hydroxy)ethyl-4-(3,3-diphenylpropionyl)piperazine] | 125.5 to 127.5 °C
O=C(/C=C/c1ccccc1)N1CCN(CC(O)c2cc3ccccc3o2)CC1 (centres unmarked) [Compound 1, 1-(2-(benzofuran-2-yl)-2-hydroxy)ethyl-4-cinnamoylpiperazine] | 126.5 to 128 °C
O=C(CC(c1ccccc1)c1ccccc1)N1CCN(C(=O)c2cc3ccccc3o2)CC1 [Compound 4, 1-(benzofuran-2-yl)carbonyl-4-(3,3-diphenylpropionyl)piperazine] | 130.5 to 132 °C
O=C(CC(c1ccccc1)c1ccccc1)N1CCN(Cc2cc3ccccc3o2)CC1 [Compound 6, 1-(benzofuran-2-yl)methyl-4-(3,3-diphenylpropionyl)piperazine] | 120.5 to 122 °C
O=C(CC(c1ccccc1)c1ccccc1)N1CCN(CCc2cc3ccccc3o2)CC1 [Compound 7, 1-(2-(benzofuran-2-yl)ethyl)-4-(3,3-diphenylpropionyl)piperazine] | 123.3 to 124.1 °C

Reference: patent publication US6797711B2, “Benzofuran derivatives and pharmaceutical compositions containing the same” (Pola Chemical Industries, Inc., priority 2000, dated 2004)
